Test results as given in patent publication US20120094939A1, “ANTI-VIRAL COMPOUNDS, COMPOSITIONS AND METHODS” (priority 2007, published 2012).

What was measured:
[1] = tested on: Huh7/Rep-Feo HCV replicon (HCV RNA replication); assay type: cell-based, Hepatitis C virus (strain HCV—N, genotype 1b); conditions: approximately 10-50 μM, most at 33 μM; for R-CompZ, compositeZ score for reporter gene assay: Table 2 antiviral hits of DOS set, 48 hours
OR6 cells = assay: Secondary assay cell viability (CellTiter-Glo); conditions: 48 hours
Description: Secondary Assays-Hit Validation. Several hits from primary HTS, as well as functionally related compounds, were purchased from Sigma (St. Louis, Mo.), Calbiochem (San Diego, Calif.), and Microsource (Gaylordsville, Conn.). […] Ten mM of stock solutions of the individual compounds to be tested was prepared in the appropriate solvent (DMSO, ethanol, or H2O, according to the manufacturer's information) and stored at −20° C. Cells were seeded into 96-well plates at a density of 2000 cells/well in 100 μL of medium. The cells were incubated for 24 hours at 37° C. to obtain the optimal level of adherence. Solutions of candidate hit compounds were added to wells to achieve final concentrations of 0.1, 1, 10, 50, and 100 μM. The final concentration of DMSO or ethanol in every well was 1% or less by volume. Mock solutions were used as a negative control. PEG-IFN and ribavirin were used as positive controls at various concentrations, alone and in combination. The plates were then incubated at 37° C. with 5% CO2 for 48 hours before they were analyzed. Luminescent signal was generated using the Renilla luciferase assay kit (Promega) according to the manufacturer's instructions. Signal was then detected using a LumiCount (Packard BioScience Company) luminometer. Cell viability was assessed using CellTiter-Glo (Promega), following the manufacturer's instructions. All experiments were performed in triplicate.
Secondary Assays-Data Analysis. Values were presented as a percentage of mock treated control, which was arbitrarily set at 100%. Data were expressed as the mean (±) SD. […] Synergy calculations were performed using CalcuSyn (Biosoft; Cambridge, England).
Secondary Assays—Hit Validation: 10 mM of stock solutions of the individual compounds to be tested were prepared in DMSO and stored at −20° C. Cells were seeded into 96-well plates at a density of 2,000 cells/well in 100 μl of medium. The cells were incubated for 24 hours at 37° C. to obtain the optimal level of adherence. Solutions of candidate hit compounds were added to wells to achieve varying final concentrations between 0.01 and 100 μM. The final concentration of DMSO or ethanol in every well was 1% or less by volume. Mock solutions were used as a negative control. Peginterferon-alfa-2b (PEG-Intron; Schering Corp.; Kenilworth, N.J.) and ribavirin (Sigma; St. Louis, Mo.) were used as positive controls at various concentrations, alone and in combination. The plates were then incubated at 37° C. with 5% CO2 for 48 hours before they were analyzed. Luminescent signal was generated using the Renilla luciferase assay kit (Promega; Madison, Wis.) according to the manufacturer's instructions. Signal was then detected using a LumiCount™ (Packard BioScience Company; Downers Grove, Ill.) luminometer. Cell viability was assessed using CellTiter-Glo (Promega; Madison, Wis.), following the manufacturer's instructions. All experiments were performed in triplicate. Values were presented as a percentage of mock treated control, which was arbitrarily set at 100%. Data were expressed as the mean±SD.
Secondary Assays—Data Analysis: Values were presented as a percentage of mock treated control, which was arbitrarily set at 100%. Data were expressed as the mean±SD.

Structure (SMILES)	R-CompZ, compositeZ score for reporter gene assay [1]	concentrations with no significant/observed cytotoxicity (OR6 cells) [µM]	concentrations at which cytotoxic effects were exhibited (OR6 cells)	primary screen hit result (in words) ([1]; known bioactives library)	cytotoxicity (in words) (OR6 cells)
Cc1cc(C)c(-c2cc([C@H](C)O/N=C3/[C@H]4CCn5c(=O)n(-c6ccccc6)c(=O)n5[C@H]4[C@H](O)[C@@H]4O[C@H]34)on2)c(C)c1 [BUCMLD-B10A11]	−4.7324	≤ 10	–	–	–
CC(=O)OC[C@H]1O[C@H](CCO/N=C2/[C@H]3CCn4c(=O)n(-c5ccccc5)c(=O)n4[C@H]3[C@H](O)[C@@H]3O[C@H]23)C=C[C@@H]1OC(C)=O [BUCMLD-B10A3]	−4.6336	–	above 7 μM	–	–
COc1cc2c(cc1OC)-c1c/c(=N\c3c(C)cc(C)cc3C)n(C)c(=O)n1CC2 [trequinsin, reference compound]	–	–	–	not identified as a hit	significant cytotoxicity only at the higher concentrations of 50 and 100 μM
O=C1C2(CO)C=C(Br)C(CC2c2ccccc2)[C@@]12CO2 (some centres unmarked) [SM_A6B5_2P100]	−3.1341	≤ 30	–	–	–
Cc1cc2c(nc1C)CCCN2CC(C)O/N=C1/[C@H]2CCn3c(=O)n(-c4ccccc4)c(=O)n3[C@H]2[C@H](O)[C@@H]2O[C@H]12 (some centres unmarked) [BUCMLD-B10A5]	−3.0849	–	≥ 30 µM	–	–
O=C1C2C=C(I)C(CC2OCCCCO)[C@@]12CO2 (some centres unmarked) [SM_A5B3_2P141]	−2.5923	–	–	–	–
